The source of these data is article PMC11530130, “Peripherally restricted PICK1 inhibitor mPD5 ameliorates pain behaviors in murine inflammatory and neuropathic pain models” (JCI Insight, 2024).

Several values for one entry are separate records, joined by “and”; a condition that tells them apart may be missing. Equal entries are not always repeated. Where two headings read alike, the source gives them in different places.

Assay [1] deals with mice, spared nerve injury (SNI) model. It counts as in vivo, mouse. Conditions: for von Frey paw withdrawal threshold, ipsilateral paw (Fig 7F): SNI mice, 10 umol/kg, individual animals. Here is the method: solution (0.05 mg/kg) injected s.c. 30 min before surgery (10 μL/g). For surgery, mice were anaesthetised with ketamine (100 mg/kg, i.p.) and xylazine (10 mg/kg, i.p.) (volume 10 µL/g) with 100 μL of 1% xylocaine solution infiltrated at the site of the incision. The distal trifurcation of the sciatic nerve was identified, and the tibial and common peroneal branches were ligated with polypropylene nonabsorbable 6-0 sutures (Ethicon) and 1 mm was cut out, leaving the sural branch intact. The wound was closed with sutures, and the animals were allowed to recover and returned to their cages. Two subcutaneous injections of buprenorphine (0.05 mg/kg) were performed with an 8 to 12 hours delay decreasing pain due to the surgery […]
The remaining SNI pain experiments were performed in-house using the following procedure.
SNI surgery was performed on the left hindleg of C57BL/6J male and female mice (Janvier, France) under 2% isoflurane anaesthesia. Skin on the lateral surface was incised between hip and knee followed by lengthwise division of the biceps femoris muscle leading to exposure of the three branches of the sciatic nerve. Sural branch was left intact, while the peroneal and tibial branches were ligated with a single surgical knot and axotomized distally of the ligation.
Wounds were closed with surgical glue or medical clips and animals were monitored daily for signs of stress or discomfort, but in all cases recovered uneventfully. […]
(§1) The skin wound was closed with two medical clips (Michel Suture Clips, 7.5x1.75 mm, Angthos, 12040-01). Post-surgical analgesia included s.c. injection of 5 mg/kg carprofen (Carprosan vet, 50 mg/mL mixed 1:25 in sterile ddH2O, Dechra, Le Vet Beheer B.V., Netherlands, Batch: 050520) right after surgery and the […]
(§2) following day. […]
(§3) The test battery of the CIBP model was carried out 45 or 90 min after morphine and mPD5 administration respectively to accommodate the peak efficacy […]
(§4) Mechanically evoked pain (von Frey test).
(§5) Unless otherwise specified, von Frey occurred as described in the following. Animals were habituated to the experimental room for a minimum of 60 min before initiation of the experiment. Mechanical paw withdrawal threshold (PWT) was determined by von Frey measurements of both hind paws. Von Frey filaments ranging from 0.04 to 2 g (g = gram- […]
(§6) Filaments in ascending order were applied to the frontocentral plantar surface of the hind paws.
(§7) Mice were placed in PVC plastic boxes (11.5 cm x 14 cm) on a wire mesh and allowed minimum 20 min habituation prior of experiment initiation. Each von Frey hair was applied five times with adequate resting periods between each application and number of withdrawals recorded. The withdrawal threshold was determined as the von Frey filament eliciting at least three positive trials out of the five applications in two consecutive filaments. A positive trial was defined as sudden paw withdrawal, flinching and/or paw licking induced by the filament.
(§8) For the CIBP model, two habituation sessions were performed on separated days with mice placed in the von Frey equipment for 1-1.5 hours in the presence of the experimenter on day one and random von Frey pocking with the 0.6 g filament on day two. Von Frey monofilaments (North Coast Touch Test, North Coast Medical, Inc.) with target forces of 0.04g, 0.07g, 0.16g, […]
(§9) down method” (PWT=10Xf+kδ) starting with the 0.6 g filament. Positive response was defined as; withdrawal, shaking or grooming of paw following a 2-3 second stimulation. In case, of unclear response, stimulus was repeated after 10-15 seconds.
(§10) For the STZ model, the mechanical threshold response of the injected mice was measured with […]
(§11) injection of test compounds on day 14, mechanical threshold was measured at 1 hour, 2 hours, 4 hours and 6 hours and again on day 15. […]
(§12) Thermally evoked pain (Hargreaves test).
A baseline Hargreaves test was performed on day 0 before inflammatory pain was induced as described in section 2.13. In the Hargreaves test, the mouse was placed in a container on a glass […]

Assay [2] has as its system mice, streptozocin (STZ) model of type 1 diabetes. Kind of assay: STZ model of diabetic neuropathy, von Frey. It counts as in vivo, mouse. Here is the method: Induction of Diabetic neuropathy (STZ model).
Diabetes was induced by a single i.p. injection of […] streptozocin (STZ) solution (100 μL/10 g, Sigma-Aldrich S0130, batch #WXBB7152V) in male seven-week-old C57BL/6J (Charles River) mice. Glycemia was tested before, and seven days after injection. All injected mice had blood glucose concentration >350 mg/dL from day seven and were used for analgesic testing of the compounds from day 14. One mouse had to be euthanized at seven days post injection. This experiment was performed by Phenotype Expertise, Marseilles, France - Pain and CNS behaviour CRO under supervision of Stéphane Gaillard, PhD (CEO). […]
as §1, §2, §3, §4, §5, §6, §7, §8, §9, §10, §11, §12
A baseline Hargreaves test was performed on day 0 before inflammatory pain was induced as described in section 2.13. In the Hargreaves test, the mouse was placed in a container on a glass table and left to habituate for at least 15 min. Using the Hargreaves apparatus, a heat beam from beneath was directed towards the hind paws of the mouse, and the paw withdrawal time

Take `CCCCCCCCCCCCCC(=O)N(CCOCCOCCC(=O)N[C@@H](Cc1c[nH]cn1)C(=O)N[C@@H](Cc1c[nH]c2ccccc12)C(=O)N[C@@H](CC(C)C)C(=O)N[C@@H](CCCCN)C(=O)N[C@H](C(=O)O)C(C)C)CCOCCOCCC(=O)N[C@@H](Cc1c[nH]cn1)C(=O)N[C@@H](Cc1c[nH]c2ccccc12)C(=O)N[C@@H](CC(C)C)C(=O)N[C@@H](CCCCN)C(=O)N[C@H](C(=O)O)C(C)C` [mPD5, myristoyl-NPEG4-(HWLKV)2]: the “von Frey paw withdrawal threshold, ipsilateral paw (Fig 7F)” value in assay [1] (time point 8) is 0.16 (5×) and 0.4; in assay [1] (time point 13), 0.16 (5×) and 0.07; in assay [1] (time point BL (baseline)), 1 (2×) and 1.4 (4×); in assay [1] (time point D12 (before dosing)), 0.16 (5×) and 0.07. Moreover, the “effect on mechanical hypersensitivity (PWT)” value in assay [1] (SNI, single s.c. administration, 8 hours after injection) was “no effect on mechanical hypersensitivity”; in assay [2] (male mice, s.c. 2 and 10 μmol/kg, the first hour after injection) it was “significant relief of mechanical hypersensitivity”. Also, the “paw withdrawal threshold, left paw, group mean” value in assay [2] (2 umol/kg, +1h, n = 10) is on record as 0.44; in assay [2] (2 umol/kg, +2h, n = 10) it was 0.37; in assay [2] (2 umol/kg, +4h, n = 10), 0.37; in assay [2] (2 umol/kg, +6h, n = 10) it was 0.25; in assay [2] (2 umol/kg, D15, n = 10), 0.17; in assay [2] (10 umol/kg, +1h, n = 10), 0.58. For the same compound, the “paw withdrawal threshold, left paw, group mean” value is given as 0.6 in assay [2] (10 umol/kg, +2h, n = 10); 0.38 in assay [2] (10 umol/kg, +4h, n = 10); 0.21 in assay [2] (10 umol/kg, +6h, n = 10); 0.28 in assay [2] (10 umol/kg, D15, n = 10). Moreover, the “extension of the effect at the highest dose” value in assay [2] (male mice, s.c. 10 μmol/kg) is “extended for another hour”.
